Test results as given in ChEMBL document CHEMBL1153542, “RNase H active site inhibitors of human immunodeficiency virus type 1 reverse transcriptase: design, biochemical activity, and structural information” (J Med Chem, 2009).
Active and inactive are the calls of the source. The calls are words filed in the database; no cut-off is given here.

How the values were obtained:
[1] = system: Human immunodeficiency virus; test: Antiviral activity against HIV infected in human MT4 cells up to 100 uM by multicycle infectivity assay; assay type: functional, organism-based
Ribonuclease H1 = molecular target: T1, Ribonuclease H1 (Homo sapiens, UniProt O60930); test: Inhibition of human RNase H assessed as substrate cleavage by fluorescence assay
T1 sequence (O60930 whole entry): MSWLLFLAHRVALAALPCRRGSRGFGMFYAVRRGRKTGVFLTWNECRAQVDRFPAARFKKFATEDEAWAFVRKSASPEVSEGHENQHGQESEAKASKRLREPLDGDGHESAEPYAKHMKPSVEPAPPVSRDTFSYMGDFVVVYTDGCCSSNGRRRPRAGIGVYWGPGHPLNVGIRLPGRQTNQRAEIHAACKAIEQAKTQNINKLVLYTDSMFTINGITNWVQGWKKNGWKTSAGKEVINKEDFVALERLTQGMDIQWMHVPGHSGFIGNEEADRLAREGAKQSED

[2] = molecular target: Ribonuclease H1 (Homo sapiens) (UniProt O60930); test: Inhibition of human recombinant ribonuclease H1 in presence of Mg2+

Compound | Activity [1] | IC50 (Ribonuclease H1) | IC50 [2]
O=C(O)c1nc(Cc2ccccc2)nc(O)c1O | inactive | – | –
COc1ccc(Cc2nc(O)c(O)c(C(=O)O)n2)cc1Br | inactive | – | –
O=C(O)c1nc(CCc2ccccc2)nc(O)c1O | inactive | – | –
O=c1[nH]c2ccccc2c(=O)n1O | inactive | 5.9 µM | –
O=C(O)c1nc(-c2ccccc2)nc(O)c1O | inactive | – | > 100 µM
O=C(O)c1nc(Cc2c(Br)sc3ccc(Cl)cc23)nc(O)c1O | inactive | – | –
COC(=O)c1nc(Cc2ccccc2)nc(O)c1O | inactive | – | –
O=C(O)c1nc(Cc2ccc(Cl)c(Cl)c2)nc(O)c1O | inactive | – | –
